We go through two compounds from patent publication US8207218B2, “DMAE as sole agent for the treatment of mild cognitive impairment” (Pierre Fabre Medicament, priority 2006, dated 2012).

In test [1] the test system is healthy individuals with memory loss induced by injection of scopolamine. Kind of test: Buschke Selective Reminding Test, memory loss induced by injection of scopolamine (cross-over study). It is filed as in vivo. Conditions: 24 healthy individuals, repeated oral doses. On the procedure:
(§1) Under the present invention, the activity of DMAE and its salts and esters, and the hydrates and solvates, was assessed in a population in whom this memory disorder was induced by injection of scopolamine, to reproduce the profile of the target population.
(§2) The medications given were in forms suitable to be taken via oral route, corresponding to dosage units allowing daily doses in the order of 100 mg to 3 g, advantageously 300 mg to 3 g of active ingredient in adults, particularly in the order of 1500 mg per day. The tested medications led to plasma levels corresponding to a Cmax peak of around 1.5 μg/ml of DMAE and/or around 24 ng/ml of pGlu (pyroglutamic acid).
(§3) The Applicant conducted the following tests: • Memory test: Buschke Selective Reminding Test, • Attention test: Digit Symbol Substitution Test (90″) • Assessment of alertness and mood: EVA by Bond and Lader, • Sensory-motor performance tests: reaction times (total, decisional and motor)
The main results observed are given in the graphs of the appended FIGS. 1 to 4 in which: • LTS designates the number of words acquired in long-term storage, • LTR designates the number of words retrieved from long-term memory in each test i.e. the words belonging to LTS and which are recalled for the test in progress, and • CLTR designates the number of words which are consistently acquired i.e. which are recalled during subsequent tests.

The test system is the same in test [2]. Kind of test: Attention (Digit Symbol Substitution Test), alertness and mood (EVA by Bond and Lader), reaction times, after scopolamine. It is filed as in vivo. Conditions: 24 healthy individuals, repeated oral doses. On the procedure:
as §1, §2, §3

As for `CN(C)CCO` [DMAE, dimethylaminoethanol], the “effect on memory performance levels” value in test [1] is given as “specific effect on memory performance levels”. In addition, in test [2], the “impact on the other cognitive components tested such as alertness, attention” value is “without any impact”.

In the case of `CN(C)CCO.O=C1CC[C@@H](C(=O)O)N1` [DMAE pyroglutamate], in test [1], the “effect on memory performance levels” value is reported as “specific effect on memory performance levels”. The “impact on the other cognitive components tested such as alertness, attention” value in test [2] is given as “without any impact”.
